Data reported in patent publication US11478476B2 (CONTERA PHARMA APS, priority 2014, dated 2022).
Read-outs that look alike come from different tables or passages of the source.

What was measured:
[1] = target: human recombinant dopamine D2 receptor (Homo sapiens, UniProt P14416); conditions: read-out: D2 affinity Ki ± SEM; cited from earlier work
[2] = human volunteers, cited from earlier work
[3] = tested on: L-DOPA induced dyskinesia (LID) model rats; assay: L-DOPA induced AIMs in 6-OHDA lesioned LID model rats; format: in vivo, rat
Source text: Animals: 80 experimentally-naïve, male, 9 weeks old Sprague-Dawley rats at body weight of 200 to 250 g arrive at the laboratory at least 1 week prior to behavioural testing. Rats were housed in groups of n=2/cage. Animals had ad libitum access to standard rodent chow and water. Animal housing and testing rooms were maintained under controlled environmental conditions and were within close proximity of each other. Animal housing rooms were on a 12-hour light-dark cycle with lights on at 6:00 AM and maintained at 70° F./21° C. (range: 68-72° F./20-22° C.) with a humidity range of 20-40%. Testing rooms were maintained at 68-72° F. with a humidity range of 20-40%. DA (dopamine)-denervating lesions were performed by unilateral injection of 6-OHDA in the ascending nigrostriatal pathway. Rats were anesthetized with pentobarbital sodium 40 mg/kg (i.p.) and positioned in a stereotactic frame. 6-OHDA was injected into the right ascending DA bundle at the following coordinates relative to bregma and dural surface: A (anterior-posterior), L (lateral), V (dorsoventral): A −1.8, L −2.0, V −8.6, tooth bar 0.0.
The neurotoxin injections were performed at a rate of 1 ul/min, and the injection cannula is left in place for an additional 2-3 min thereafter. Two weeks after surgery, contralateral full body turns were recorded over 30 min, following s.c. injection of 0.5 mg/kg of apomorphine sulfate. The animals were placed in plastic Perspex bowls (30 cm in diameter) and the rotational behavior (360° turns) is recorded by an automated rotometer for […] after the s.c. injection of 0.5 mg/kg of apomorphine sulfate. Apomorphine (0.5 mg/kg, s.c.) induced contralateral rotation in unilateral 6-OHDA lesioned rats. 73 rats with rotations ≥180/30 min, indicating >90% DA lesion in nigrostriatal pathway, were chosen as the PD model rats for chronic L-DOPA treatment.
Starting one day after the apomorphine-induced rotation test, 6-OHDA-lesioned rats were treated with daily L-DOPA (Sigma-Aldrich, Germany) (8 mg/kg plus benserazide 15 mg/kg, s.c.) for 21 days. Rats were placed individually in transparent plastic cages without bedding material and scored every 20 min following the injection of L-DOPA for the entire time course of dyskinesias (120 min). The AIMs were classified into four subtypes according to their topographic distributions such as Locomotive, Forelimb, Axial and Orolingual behaviors. The severity of each AIM subtype was assessed by using scores from 0 to 4 (1: occasional, i.e. present less than 50% of the time; 2: frequent, i.e. present more than 50% of the time; 3: continuous, but interrupted by strong sensory stimuli; 4: continuous, not interrupted by strong sensory stimuli). In this study, rats with an AIMs≥28 were considered highly dyskinetic, while rats with an AIMs<28 either low or none-dyskinetic.
After chronic L-DOPA treatment on PD rats for 21 days, 42 LID model rats (348 g˜501 g, 15 weeks old) were successfully created with the criteria of total AIM scores (Lo+Li+AX+OI)≥28 points.
AIMs ratings were performed by an investigator who was kept unaware of the pharmacological treatment administered to each rat (experimentally blinded). In order to quantify the severity of the AIMs, rats were observed individually in their standard cages every 20th minute at 20-180 min after an injection of I-DOPA. The AIM's were classified into four subtypes:
Each of the four subtypes are scored on a severity scale from 0 to 4, where 0=absent, 1=present during less than half of the observation time, 2=present for more than half of the observation time, 3=present all the time but suppressible by external stimuli, and 4=present all the time and not suppressible by external stimuli. Axial, limb and orolingual AIMs are found to be modulated in a similar way by all the tested substances.
Rats were tested for AIMs using the sum of locomotive (LO) oraxial (AX), limb (LI), and orolingual (OL) AIM scores per testing session for statistical analyses. […]

[4] = target: human recombinant dopamine D3 receptor (Homo sapiens, UniProt P35462); conditions: saturating concentrations of dopamine; read-out: D3 efficacy IC50 ± SEM; cited from earlier work
[5] = target: T1, human recombinant dopamine D4 receptor (Homo sapiens, UniProt P21917); conditions: saturating concentrations of dopamine; read-out: D4 efficacy IC50 ± SEM; cited from earlier work
T1 sequence (P21917 1-419): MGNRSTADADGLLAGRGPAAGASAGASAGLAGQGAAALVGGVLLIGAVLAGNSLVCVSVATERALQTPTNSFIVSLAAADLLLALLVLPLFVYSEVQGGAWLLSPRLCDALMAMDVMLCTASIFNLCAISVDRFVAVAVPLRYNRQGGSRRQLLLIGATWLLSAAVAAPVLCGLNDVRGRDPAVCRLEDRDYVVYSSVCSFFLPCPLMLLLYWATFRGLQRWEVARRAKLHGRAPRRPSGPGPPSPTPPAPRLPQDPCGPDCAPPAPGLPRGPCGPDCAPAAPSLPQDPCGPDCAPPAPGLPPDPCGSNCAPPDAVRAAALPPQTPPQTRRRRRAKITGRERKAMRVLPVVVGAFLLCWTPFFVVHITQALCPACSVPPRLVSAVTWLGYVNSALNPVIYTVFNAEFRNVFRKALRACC

[6] = oral administration of buspirone, analyte = label (6-OH-Busp: total, both enantiomers)
[7] = oral administration of racemic 6-OH-Busp, exposure of 6-OH-Busp

human recombinant dopamine D2 receptor, sequence (P14416 whole entry): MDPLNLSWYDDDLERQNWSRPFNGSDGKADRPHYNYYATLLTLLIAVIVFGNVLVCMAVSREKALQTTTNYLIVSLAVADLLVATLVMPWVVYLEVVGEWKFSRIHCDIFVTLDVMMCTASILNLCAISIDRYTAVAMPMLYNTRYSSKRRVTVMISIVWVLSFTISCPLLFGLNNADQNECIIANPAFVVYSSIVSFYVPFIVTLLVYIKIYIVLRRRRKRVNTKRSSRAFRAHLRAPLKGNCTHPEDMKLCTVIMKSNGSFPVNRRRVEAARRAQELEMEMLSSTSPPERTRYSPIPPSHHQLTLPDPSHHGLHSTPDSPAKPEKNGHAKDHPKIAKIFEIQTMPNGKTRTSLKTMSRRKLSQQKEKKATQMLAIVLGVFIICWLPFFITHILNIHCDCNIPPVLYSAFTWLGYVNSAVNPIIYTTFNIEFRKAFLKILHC
human recombinant dopamine D3 receptor, sequence (P35462 whole entry): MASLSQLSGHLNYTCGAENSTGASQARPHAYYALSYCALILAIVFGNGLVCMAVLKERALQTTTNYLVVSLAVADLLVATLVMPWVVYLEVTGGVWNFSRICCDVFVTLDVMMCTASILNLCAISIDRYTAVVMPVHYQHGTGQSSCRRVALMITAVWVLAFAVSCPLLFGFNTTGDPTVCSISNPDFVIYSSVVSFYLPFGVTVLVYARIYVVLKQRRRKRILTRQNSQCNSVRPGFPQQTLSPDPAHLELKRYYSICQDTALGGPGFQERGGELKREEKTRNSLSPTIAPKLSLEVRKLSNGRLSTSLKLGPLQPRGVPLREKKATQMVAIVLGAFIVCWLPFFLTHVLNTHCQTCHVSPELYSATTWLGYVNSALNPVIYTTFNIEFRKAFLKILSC

Compound: O=C1CC2(CCCC2)C(O)C(=O)N1CCCCN1CCN(c2ncccn2)CC1 (racemic) [6-OH-Busp]
- Ki [1]: 5.39 ± 0.425 µM
- half-life (T½) ([2]; after administration of either parent buspirone or 6-OH-Busp): longer than that of buspirone
- AUC0-INF [2, 6]: 52.93 ngxh/ml
- Cmax [2, 6]: 9.12 ng/mL
- AUC0-INF [2, 7]: 131.52 ngxh/ml
- Cmax [2, 7]: 25.63 ng/mL
- total AIMs sum ([3]; Example XII, 0.3, 1 and 3 mg/kg s.c.): dose-dependently decreased
- AIMs of LID rats at time points ([3]; Example XII, 0.3, 1 and 3 mg/kg s.c., 30 to 190 min after L-DOPA injection): dose-dependently decreased
- AUC of total AIMs from 10 min to 190 min ([3]; Example XII, buspirone 1 mg/kg s.c., 6-OH-Busp 0.3, 1 and 3 mg/kg s.c., vs vehicle): dose-dependently decreased
- AIMs of LID rats at time points ([3]; Example XIII, 1 mg/kg s.c., 50 min and 70 min after L-DOPA injection): did not significantly decrease
- AIMs of LID rats at time points ([3]; Example XIII, 3 mg/kg s.c., 50 to 190 min): significantly decreased
- AIMs of LID rats at time points ([3]; Example XIV, 1 mg/kg s.c. alone, 90 min and 110 min after L-DOPA injection): did not have significant effects
- IC50 [4]: 4.9 ± 2.8 µM
- IC50 [5]: 0.85 ± 0.49 µM
